These results are taken from US5218125A, “Antihypertensive compound and method of use thereas” (Merck & Co., Inc., priority 1992, dated 1993).

This assay concerns the target T1, Angiotensin II (A II) receptor (Oryctolagus cuniculus, UniProt P34976).
T1 construct: 125I-Sar1,Ile8-angiotensin II displacement
T1 sequence (P34976 1-359): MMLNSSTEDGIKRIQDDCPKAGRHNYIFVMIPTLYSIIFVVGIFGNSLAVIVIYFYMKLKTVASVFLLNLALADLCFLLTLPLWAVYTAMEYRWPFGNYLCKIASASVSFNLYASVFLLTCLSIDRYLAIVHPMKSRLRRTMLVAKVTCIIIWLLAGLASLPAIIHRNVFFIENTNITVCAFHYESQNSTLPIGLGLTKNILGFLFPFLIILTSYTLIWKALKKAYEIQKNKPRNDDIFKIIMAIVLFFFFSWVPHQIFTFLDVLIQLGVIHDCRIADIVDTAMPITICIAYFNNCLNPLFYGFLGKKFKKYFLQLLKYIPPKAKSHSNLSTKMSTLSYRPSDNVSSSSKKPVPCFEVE
Put plainly: Receptor binding assay using rabbit aortae membrane preparation (125I-Sar1 Ile8-angiotensin II displacement, "IC50" assay). As for the experimental part: This assay is also referred to herein as the "IC50 " assay.
RECEPTOR BINDING ASSAY USING RABBIT AORTAE MEMBRANE PREPARATION
Three frozen rabbit aortae (obtained from Pel-Freeze Biologicals) were suspended in 5 mM Tris-0.25M Sucrose, pH 7.4 buffer (50 mL) homogenized, and then centrifuged. The mixture was filtered through a cheesecloth and the supernatant was centrifuged for 30 minutes at 20,000 rpm at 4° C. The pellet thus obtained was resuspended in 30 ml of 50 mM Tris-5 mM MgCl2 buffer containing 0.2% Bovine Serum Albumin and 0.2 mg/mL Bacitratin and the suspension was used for 100 assay tubes. Samples tested for screening were done in duplicate. To the membrane preparation (0.25 mL) there was added ^125 I-Sar^1 Ile^8 -angiotensin II [obtained from New England Nuclear] (10 uL; 20,000 cpm) with or without the test sample and the mixture was incubated at 37° C. for 90 minutes. The mixture was then diluted with ice-cold 50 mM Tris-0.9% NaCl, pH 7.4 (4 mL) and filtered through a glass fiber filter (GF/B Whatman 2.4" diameter). The filter was soaked in scintillation cocktail (10 mL) and counted for radioactivity using Packard 2660 Tricarb liquid scintillation counter. […]

For the compound `CCCC(O)c1nc(Cl)c(CO)n1Cc1ccc(-c2ccccc2-c2nn[nH]n2)cc1` (stereo not shown) [Compound (I)], the “A II antagonist activity by the IC50 assay” value was “exhibits A II antagonist activity”.
